One data set relates to males, ages 70-79 years. As to conditions: 20 mg daily for 3 months; cited from earlier work.
Another data set has as its system healthy people. Conditions: U.S. National Academy of Sciences recommendation; cited from earlier work.
Data set [1] relates to Individuals diagnosed with mild depression. Description: Assessment of level of depression by depression inventory scales and DSM-IV. The class given is in vivo, human. Here is the method: Individuals diagnosed with mild depression are divided into four groups at random: control, low dose of P5P (100 mg/day), medium dose of P5P (250 mg/day), and high dose of P5P (750 mg/day). All dosages are administered orally for 3 weeks.
The level of depression of the individuals is assessed, both before, and after treatment, using conventional methodologies. These include completion of several depression inventory questionnaire scales including the Cornell Scale for Depression in Dementia, Centre for Epidemiologic Studies Depression Scale, The Geriatric Depression Scale (Short Version), Beck Depression Inventory and the Zung Self-Rating Depression Scale as well as diagnosis by a trained professional according to the DSM-IV. These questionnaires measure depression through questions related to appetite, sadness, worthlessness/inadequacy, concentration, exhaustion, failure, retardation, socialization, isolation, anxiety, irritability, agitation, loss of interest, lack of energy, diurnal mood variation, insomnia, suicidal thoughts, low self-esteem, pessimism, mood congruent delusions, satisfaction, withdrawal, fulfillment, mood, fear, guilt, self-accusations, somatic preoccupation and loss of libido.

A further data set has as its system P2 purinoceptors. Conditions: cited from earlier work.
Data set [2] has as its system Human males aged between 65 and 90. Briefly: Associative learning task (colour-number association recall) in aged males. The class given is in vivo. Here is the method:
Human males aged between 65 and 90 are separated into four random groups: control, low dose of P5P (100 mg/day), medium dose of P5P (250 mg/day), and high dose of P5P (750 mg/day). All dosages are administered orally for 3 weeks before subjecting the patients to an associative learning task.
The patients are subjected to an associative learning task, as follows. Briefly, patients are comfortably seated in front of a computer. Patients are asked to learn the associations between six colors and the numbers 1-6, using trial and error. Subjects are then required to recall this association, a defined period of time after the associations are learned. Tests are repeated, with the defined period of time increasing, until the patients are no longer able to associate the colors with the numbers.

Another data set concerns healthy subjects. Briefly: Phase I single ascending dose study, safety and tolerance. The class given is in vivo, human. Conditions: single oral dosages up to 4000 mg. How it is done: A Phase I, single center, single-dose, open-label, sequential ascending dose study to evaluate the safety and tolerance of pyridoxal-5′-phosphate, in an enteric-coated tablet, following a single dose of 250 mg, 750 mg, 1000 mg, and 4000 mg in healthy subjects under fasting conditions was conducted.
A total of 32 healthy, adult subjects signed the study-specific Informed Consent Form and were confined in the clinical study unit; of these subjects, 24 (6 subjects in each dose level; 3 males and 3 females) were dosed and were enrolled in the study; all of these enrolled subjects completed the study. Subjects were confined to the SFBC Anapharm Clinical Research Facility from at least 12 hours prior to drug administration until after the 24.0-hour post-dose blood draw.
Subjects enrolled in this study were members of the community at large. […] All participating subjects were judged eligible for the study when assessed against the inclusion and exclusion criteria. […]

Setting [3] is: 250 mg/day vs 750 mg/day orally for 3 weeks.
[4] abbreviates: P5P 100, 250 or 750 mg/day orally for 3 weeks.

In the case of vitamin B6, the “information storage vs matched placebo group” value in the data set on males, ages 70-79 years is given as “improved information storage”.
Regarding `Cc1ncc(CO)c(CO)c1O` [pyridoxine], the “Tolerable Upper Intake Level” value in the data set with healthy people is given as 100 mg.
Turning to `Cc1ncc(COP(=O)(O)O)c(C=O)c1O` [P5P, 3-hydroxy-2-methyl-5-[(phosphonooxy)methyl]-4-pyridine-carboxaldehyde], the “level of depression, medium vs high dose group” value in data set [1] (setting [3]) is on record as “not significantly different”. Besides, the “level of depression, medium and high dose groups vs low dose group” value in data set [1] (250 and 750 mg/day vs 100 mg/day orally for 3 weeks) is listed as “significantly less depressed”. For the same compound, the “level of depression vs control individuals” value in data set [1] (setting [4]) was “significantly less depressed”. Further, in the data set with P2 purinoceptors, the “effect on ATP induced calcium ion influx into cells” value is reported as “inhibits”. In addition, the “associative learning and memory, medium vs high dose group” value in data set [2] (setting [3]) was “no significant difference”. In data set [2] (setting [4]), the “time after which the number-colour association can be recalled, vs control patients” value is “significantly longer time”. Further, the “tolerability (side effects, evidence of toxicity)” value in the data set on healthy subjects is reported as “well tolerated”.

Values taken from patent US20100196342A1, “MOOD, MEMORY AND COGNITIVE FUNCTION WITH PYRIDOXAL 5'-PHOSPHATE” (priority 2007, published 2010).
